The results in this text go back to a melting point compilation (Tetko et al.; mined from patent text by program, amines drawn as free bases though some values may be those of a salt).

Bounds are passed on as bounds.

With `CCOC(=O)C(C)c1ccc(C(=O)c2ccc(Cl)cc2)n1C` (stereo unspecified), the melting point lay within 67 to 68 °C. `c1ccc(Cc2nc(-c3ccncc3)cs2)cc1`: the melting point was 88 to 89 °C. In the case of `Clc1c2ccccc2nc2c1oc1ccccc12`, the melting point fell in the range of 158 to 159 °C. `COc1cc(C(C)=O)ccc1OCCN1C2CCC1CC(c1n[nH]c3cc(F)ccc13)C2` (stereo unspecified) displayed a melting point of 151 to 152 °C. The compound `COc1nn(CC(=O)C2CC2)c(=O)s1` displayed a melting point of 98 to 100 °C. The compound `O=C(OCC1CC1)c1ncn2c1[C@@H]1CCCN1C(=O)c1cc(F)ccc1-2` yielded a melting point of 140 to 142 °C.

In turn, `O=C1C=C2CCCCC2N1c1ccc(O)c(Cl)c1` (stereo unspecified) yielded a melting point of 216 °C.

`CC(C)(C)OC(=O)N[C@H]1CC[C@H](CCN2CCN(c3cccc(Cl)c3Cl)CC2)CC1` showed a melting point of 150 to 154 °C. `Cc1nc(N2CCN(Cc3ccc(F)cc3)C2=O)sc1C(=O)NCc1ncco1`: the melting point lay within 187 to 189 °C. Turning to `COC(=O)C[C@@H](CC(=O)C=Cc1c(-c2ccc(F)cc2)c(-c2ccccc2)c(C(=O)Nc2ccccc2)n1C(C)C)O[Si](C)(C)C(C)(C)C`, the melting point lay in the range of 62 to 64 °C. Regarding `O=C(O)CCc1cc(-c2ccc(Cl)cc2)n(-c2ccccc2)n1`, the melting point lay in the range of 138 to 139 °C. `O=C1CC(c2c(-c3ccc[nH]3)[nH]c3ccc(Cl)cc23)C(=O)N1` (stereo unspecified) had a melting point of 138 to 144 °C. Then `COc1ccc(CS(=O)(=O)C(C)(Cc2ccccc2)C(=O)N(O)O)cc1` (stereo unspecified), with 58 to 59 °C. With `O=C(c1ccc(-n2ccnc2)cc1)N1Cc2cccn2Cc2ccccc21`, the melting point lay in the range of 171 to 172 °C.

For the compound `CN(C)CCn1ccc(-c2ccc(F)cc2)c1-c1ccncc1`, the melting point lay in the range of 70 to 73 °C. The value for `COc1ccc(-c2c(C)c3cc(O)ccc3n2Cc2ccc(OCCN3CCCCC3)cc2)c(OC)c1` was 85 to 92 °C.

Turning to `CCn1c2ccc(C)cc2c(=O)c2c1cnn2C`, the melting point was greater than 300 °C. In turn, `CCCC(=O)Nc1n[nH]c2c(F)c(C(F)(F)F)ccc12` had a melting point of 220 to 222 °C. As for `CN1CCN(C(c2ccccc2)c2ccccc2)CC1(C)Cc1ccc2c(c1)OCCO2` (stereo unspecified), the melting point was in the range of 118 to 120 °C. On to `O=C(c1ccc(C(=O)N2CCC[C@@H]3CCCC[C@H]32)cc1)N1CCCCC1` (relative stereo), for which the melting point fell in the range of 136 to 137 °C. The value for `CC(C)(C)c1cc(-c2nn(C(=O)c3ccc(Cl)cc3)c3ncccc23)cc(C(C)(C)C)c1O` was 256 to 258 °C. In turn, `O=C(Nc1cc(Cl)c(N2CCNCC2)c(Cl)c1)c1ccc(F)c(OCc2cccnc2)c1` showed a melting point of 81 to 85 °C.

In turn, `CCN1CCN(Cc2cc(C)c3c(c2)-c2[nH]nc(-c4ccsc4)c2C3)CC1` yielded a melting point of 230 to 231 °C. Regarding `COc1ccc(Cn2c(=O)n(C3CCCCC3)c3cc(Cl)ccc32)c(OC)c1`, the melting point was found to be 112 °C. Consider `Cc1nccn1-c1nc(-c2ccc(Cl)cc2)c(CCCCO)s1`, for which the melting point is 98 to 99 °C. The compound `COc1ccccc1N1CCC(CNC(=O)Nc2c(C(C)C)cc(N)cc2C(C)C)(c2cccc(OCCCO)c2)CC1` displayed a melting point of 203 to 205 °C.

`NC(=O)c1nc(-c2cccc(N)c2)cs1` yielded a melting point of 193 to 194 °C.

As to `CC(C)c1c(Cl)nc(OCc2ccccc2)nc1OCc1ccccc1`, the melting point fell in the range of 77 to 78 °C. Compound `O=c1[nH]ncc2[nH]c(-c3ccc(OC(F)F)c(OC4CC4)c3)c(-c3cn[nH]c3)c12` showed a melting point of 294 to 297 °C.

`Cc1cc2oc(=O)c3c(c2cc1[N+](=O)[O-])CCNC3` came in with a melting point of 197 to 199 °C. The value for `Cc1nc(CS(C)=O)nc(OC(=O)N(C)C)c1C(C)C` (stereo unspecified) was 80 °C; that for `CNc1nc2c(C)cccc2c2c1CCN2c1ccccc1C` was 165 to 167 °C; that for `Clc1cc(Cl)cc(NCNc2cc(Cl)cc(Cl)c2)c1` was 153 to 156 °C.

`O=C(O)C1CCc2cccc3c(=O)[nH]c(=O)n1c23` (stereo unspecified) displayed a melting point greater than 300 °C. Take `CCc1cc2c(=O)n3cc(C#N)ccc3nc2s1`: the melting point lay in the range of 223 to 224 °C. For the compound `COc1cc(OC)nc(C(C(=O)NS(C)(=O)=O)C(C)C)n1` (stereo unspecified), the melting point lay within 99 to 102 °C. The value for `COc1ccc(C(=O)N2CCC(N3C(=O)Cc4ccccc43)CC2)c(OC)c1` was 88 to 93 °C; that for `COc1ccc(C(=O)Nc2nc(-c3ccccc3)c(-c3ccc(=O)n(C(C)C)n3)s2)cc1` was 219 to 221 °C.

As to `CCOC(=O)c1c(C)nc2c(cnn2CCCC#N)c1OCC`, the melting point amounted to 99 °C. Compound `COc1ccc(S(=O)(=O)N(Cc2ccccc2)c2c(C(=O)NO)cnc3c2c(C)nn3C)cc1` returned a melting point of 184 to 186 °C. Then `CCN1CC(=O)N(CC)c2cc(Nc3ncc(Cl)c(Nc4ccc(OC)cc4-n4cccn4)n3)c(OC)cc2C1`, with 97 to 100 °C; and `CCN(CC)CCNC(=O)c1cc(N)cc(C)c1OC`, with 56 to 57 °C.

Take `FC(F)(F)Oc1ccc(-n2cc(Br)cn2)cc1`: the melting point lay in the range of 63 to 65 °C.

For the compound `CCC(=O)C1(Nc2ccccc2)CCN(CCc2cccs2)CC1`, the melting point was found to be 127 °C.

The compound `COc1cc2oc(=O)c(CCCl)c(C)c2cc1OC(C)C` gave a melting point of 125 to 127 °C.

For `CC(C)C[C@H](NC(=O)[C@H](Cc1c[nH]cn1)NC(=O)[C@H](Cc1cccc2ccccc12)NC(=O)OCc1ccccc1)[C@@H](O)CC(N)=O`, the melting point lay in the range of 158 to 161 °C. `CC1=C2C3C(C)CC4=CC(=O)CCC4C3CCC2(C)C(O)C1` (stereo unspecified) displayed a melting point of 164 to 167 °C. Consider `CC(=O)C1=C(C)CC2C3CCC4CC(O)CCC4(C)C3C(=O)CC12C` (stereo unspecified), for which the melting point was in the range of 230 to 231 °C. `CCOC(=O)c1ccc(NC(=O)N2CCn3c(c(C(N)=O)c(Cl)c3-c3ccccc3)C2)cc1`: the melting point was 260 to 262 °C. As for `N[C@H](Cc1ccc(C(F)(F)F)cc1)[C@@H](O)c1cccc(Cl)n1` (racemic), the melting point was 89 to 90 °C.

Regarding `CCCCCCCCCCCC1=NCCN1`, the melting point was 82 °C.

For the compound `CCNC(=O)C1(C/C=C/c2ccccc2)c2ccccc2-c2ccccc21`, the melting point amounted to 144 °C. `CCCn1c(=O)c(C(=O)OCC)c(N2CCN(C(=O)c3cccs3)CC2)c2cccnc21`: the melting point is 92 to 96 °C.

As for `O=C(O)CCCCCCCCc1ccc(Cl)cc1`, the melting point is 73 to 75 °C. `CC(C)c1ccc(N(Cc2cnn(CCN(C)C)c2)C(=O)C2CCCc3c(O)cccc32)cc1` (stereo unspecified): the melting point was 92 °C. In turn, `O=S1(=O)C(c2ccsc2)=CCC=C1c1ccsc1` came in with a melting point of 162 to 164 °C.

As to `CCOC(=O)c1cc2cc(C3=C(c4cnc5[nH]cc(C(=O)C(C)(C)C)c5n4)CCC3)ccc2[nH]1`, the melting point was in the range of 278 to 280 °C.

Regarding `CC(C)(C)OC(=O)NCC1=C(CC(=O)O)CC=CC1`, the melting point was 183 °C. `Cc1cc(-c2cccc(C3=Nc4ccc(-c5ccc(F)cc5)cc4NC(=O)C3)c2)on1` yielded a melting point greater than 250 °C. Take `CCOC(=O)N1N=C(c2ccc(N)cc2)c2cc(Cl)ccc2CC1C` (stereo unspecified): the melting point was 95 to 98 °C. In turn, `Cc1cc2cc(CN3CCCC3)cnc2cc1NC(=O)c1ccc(-c2ccc(F)cc2)cc1F` showed a melting point of 174 to 177 °C. `COc1ccc(N=Nc2cc(OC)cc(C(C)(C)C)c2O)cc1` registered a melting point of 125 to 127 °C. `CCc1cc(-n2c(=O)[nH]c3cc(C(F)(F)F)c(Oc4ccccc4)cc32)c(OC)cc1OC` gave a melting point greater than 240 °C. The compound `CN1CC[C@@H](c2c(O)cc(O)c3c(=O)cc(-c4ccc(Br)cc4Cl)oc23)[C@@H]1CO` showed a melting point of 155 to 156 °C. The value for `CCCCCCCCCCCCCCCCNc1ccc(C(=O)NS(=O)(=O)c2ccc(C)cc2)cc1` was 123 to 124 °C; that for `CCCCCCCCCCC(=O)NCc1cccc2c1C(=O)N(C1CCC(=O)NC1=O)C2=O` (stereo unspecified) was 138 to 139 °C; that for `CNC(=S)n1nc(-c2ccc(Cl)c3ccccc23)nc1N` was 270 to 272 °C. For `CCCCCCCCOc1cnc(-c2ccc(C#CCCCC(C)OC(C)=O)cc2)nc1` (stereo unspecified), the melting point lay in the range of 58 to 59 °C.

`CC(C)c1nc(-c2cccnc2)c[nH]c1=O` had a melting point of 200 to 202 °C. As for `CCCc1nccn1-c1nc(Cl)nc2nc[nH]c12`, the melting point was 224 to 225 °C.

`CCOc1nc(C2CC2)nc(OCC)c1C=O` returned a melting point of 86 to 87 °C.

In turn, `COc1cc(CCl)cc(OC)c1OCc1nc(-c2ccccc2)oc1C` came in with a melting point of 118 to 119 °C. Consider `CCCCc1nc(CC(=O)OC)c(Cl)n1Cc1ccc(NC(=O)c2ccccc2C(=O)O)cc1`, for which the melting point was in the range of 150 to 152 °C. `CC(=O)OCC(C)(COC(C)=O)C(=O)O` came in with a melting point of 85 °C. With `COC(=O)c1cc(C(=O)c2c(C)c(OC)c3ccccn23)ccc1NC(=O)NCC(=O)N(C)C`, the melting point was determined as 228 °C. `COC(=O)Cc1cc(-c2ccccc2)ccc1OCc1ccc(OCc2nc(-c3ccccc3)oc2C)cc1` registered a melting point of 111 to 112 °C. Compound `CC(C(=O)C(N)=O)c1ccc(N2Cc3ccccc3C2=O)cc1` (stereo unspecified) showed a melting point of 220 to 222 °C.

On to `CN1C(=O)CCC2(C)c3ccc(Sc4ccc5ccccc5c4)cc3CCC12` (single isomer, unassigned; (+)), for which the melting point is 138 to 140 °C.

`O=C(c1cccc2ccccc12)P1(=O)Oc2ccccc2-c2ccccc21` (stereo unspecified) came in with a melting point of 149 to 151 °C.

As for `Nc1ccc(OC(F)(F)F)cc1C=O`, the melting point was in the range of 42 to 44 °C.

Compound `O=C(O)CCCCCN1C(=O)c2ccc([N+](=O)[O-])cc2C1=O` displayed a melting point of 140 °C. Take `ClCCN(CCCl)CCOc1cccc2c(Cl)c3ccccc3nc12`: the melting point lay in the range of 105 to 106 °C. As for `CCN(CC)CCOc1cccc2c1c1cc(F)ccc1n2Cc1ccc(F)cc1`, the melting point lay within 75 to 76 °C. In the case of `Cn1c(=O)sc2nc(-c3ccccc3)cn2c1=O`, the melting point lay within 228 to 229 °C. In the case of `O=C(O)Cc1cccc(Oc2cccc(-c3nnc(Nc4ccc(Cl)c(Cl)c4)s3)c2)c1`, the melting point was 183 to 184 °C. `Clc1ccc(CN2CCOCC2)c(N=C2CCCCN2)c1` displayed a melting point of 121 to 122 °C.
